The values below come from US10065971B2 (priority 2014, dated 2018).

Where a name gives a salt, the structure may show the parent alone. Some results are limits rather than exact numbers.

Sequence of human σ1 receptor (Q99720 whole entry): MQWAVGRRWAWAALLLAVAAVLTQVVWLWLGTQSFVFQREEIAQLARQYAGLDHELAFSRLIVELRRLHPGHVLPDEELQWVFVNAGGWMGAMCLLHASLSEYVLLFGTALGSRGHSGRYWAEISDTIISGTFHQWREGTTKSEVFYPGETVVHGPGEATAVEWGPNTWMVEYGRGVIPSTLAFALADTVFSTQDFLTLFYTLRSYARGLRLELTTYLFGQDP

The target of the first assay is human σ1 receptor (Homo sapiens, UniProt Q99720). Description: biochemical. Further details: μ and σ1 dual binding: scale not given here. The conditions noted are these: combined class from Ki at human σ1 receptor (A1) and Ki at human μ-opioid receptor (A2); radioligand binding. The method, then:
Biological Activity Pharmacological Study Human σ1 Receptor Radioligand Assay
The assay was carried out with 7 μg of membrane suspension, 5 nM of [^3H](+)-pentazocine in either absence or presence of either buffer or 10 μM Haloperidol for total and non-specific binding, respectively. Binding buffer contained Tris-HCl 50 mM at pH 8. Plates were incubated at 37° C. for 120 minutes. After the incubation period, the reaction mix was then transferred to MultiScreen HTS, FC plates (Millipore), filtered and plates were washed 3 times with ice-cold 10 mM Tris-HCL (pH7.4). Filters were dried and counted at approximately 40% efficiency in a MicroBeta scintillation counter (Perkin-Elmer) using EcoScint liquid scintillation cocktail
On to `N#Cc1ccccc1C(=O)N1CC2(CCN(CCc3ncccc3F)CC2)OC2(CC2)C1` [Example 135, 2-(8-(2-(3-fluoropyridin-2-yl)ethyl)-4-oxa-8,12-diazadispiro[2.1.5.3]tridecane-12-carbonyl)benzonitrile], for which the “μ and σ1 dual binding” value is recorded as “++”.

For `Cl.O=C(Cc1ccccc1)N1CCOC2(CCN(CCc3ccccc3)CC2)C1` [Example 4, 1-(9-phenethyl-1-oxa-4,9-diazaspiro[5.5]undecan-4-yl)-2-phenylethanone hydrochloride], the “μ and σ1 dual binding” value was “++”.

Turning to `C[C@@H]1CN(C(=O)c2ccccc2F)CC2(CCN(CCc3ncccc3F)CC2)O1` [Example 143, (R)-(2-fluorophenyl)(9-(2-(3-fluoropyridin-2-yl)ethyl)-2-methyl-1-oxa-4,9-diazaspiro[5.5]undecan-4-yl)methanone], the “μ and σ1 dual binding” value was “++”. Still for that read-out and setting: next, `CC1CN(C(=O)c2ccccc2)CC2(CCN(CCc3ccccc3NC(N)=O)CC2)O1` (stereo not shown) [Example 110, 1-(2-(2-(4-benzoyl-2-methyl-1-oxa-4,9-diazaspiro[5.5]undecan-9-yl)ethyl)phenyl)urea]: “++”; `Cl.O=C(c1cncs1)N1CCOC2(CCN(CCc3ccccc3)CC2)C1` [Example 14, (9-phenethyl-1-oxa-4,9-diazaspiro[5.5]undecan-4-yl)(thiazol-5-yl)methanone hydrochloride]: “++”; `CS(=O)(=O)Nc1cccc(CCN2CCC3(CC2)CN(C(=O)c2ccccc2)CCO3)c1` [Example 114, N-(3-(2-(4-benzoyl-1-oxa-4,9-diazaspiro[5.5]undecan-9-yl)ethyl)phenyl)methanesulfonamide]: “++”. `Cl.O=C(Cc1ccccn1)N1CCOC2(CCN(CCc3ccccc3)CC2)C1` [Example 19, 1-(9-phenethyl-1-oxa-4,9-diazaspiro[5.5]undecan-4-yl)-2-(pyridin-2-yl)ethanone hydrochloride]: the “μ and σ1 dual binding” value is listed as “++”.

On to `CN(C(=O)N1CCOC2(CCN(CCc3ccccc3)CC2)C1)c1ccccn1.Cl` [Example 119, N-methyl-9-phenethyl-N-(pyridin-2-yl)-1-oxa-4,9-diazaspiro[5.5]undecane-4-carboxamide hydrochloride], for which the “μ and σ1 dual binding” value is given as “++”. On the same count and under the same terms, the value for `CN(C)C(=O)N1CCOC2(CCN(CCc3ccccc3)CC2)C1` [Example 117, N,N-dimethyl-9-phenethyl-1-oxa-4,9-diazaspiro[5.5]undecane-4-carboxamide] was “++”. With `CC1CN(C(=O)c2ccccn2)CC2(CCN(CCc3ncccc3Cl)CC2)O1.Cl` (stereo not shown) [Example 48, (9-(2-(3-chloropyridin-2-yl)ethyl)-2-methyl-1-oxa-4,9-diazaspiro[5.5]undecan-4-yl)(pyridin-2-yl)methanone hydrochloride], the “μ and σ1 dual binding” value is given as “++”. Still for that read-out and setting: the value for `CC(=O)Nc1cccc(CCN2CCC3(CC2)CN(C(=O)c2ccccc2)CCO3)c1` [Example 111, N-(3-(2-(4-benzoyl-1-oxa-4,9-diazaspiro[5.5]undecan-9-yl)ethyl)phenyl)acetamide] was “++”; that for `CC1CN(C(=O)c2ccc(Cl)cn2)CC2(CCN(CCc3csc(N)n3)CC2)O1.Cl` (stereo not shown) [Example 102, (9-(2-(2-aminothiazol-4-yl)ethyl)-2-methyl-1-oxa-4,9-diazaspiro[5.5]undecan-4-yl)(5-chloropyridin-2-yl)methanone hydrochloride] was “++”; that for `CC(=O)Nc1ccccc1CCN1CCC2(CC1)CN(C(=O)c1ccccc1)CC(C)O2.Cl` (stereo not shown) [Example 112, N-(2-(2-(4-benzoyl-2-methyl-1-oxa-4,9-diazaspiro[5.5]undecan-9-yl)ethyl)phenyl)acetamide hydrochloride] was “++”. On the same count and under the same terms, the value for `CC1CN(C(=O)c2ccccn2)CC2(CCN(CCc3cccc(OC(F)(F)F)c3)CC2)O1` (stereo not shown) [Example 80, (2-methyl-9-(3-(trifluoromethoxy)phenethyl)-1-oxa-4,9-diazaspiro[5.5]undecan-4-yl)(pyridin-2-yl)methanone dihydrochloride] was “++”; that for `Cl.O=S(=O)(c1ccccc1)N1CCOC2(CCN(CCc3ccccc3)CC2)C1` [Example 83, 9-phenethyl-4-(phenylsulfonyl)-1-oxa-4,9-diazaspiro[5.5]undecane hydrochloride] was “++”.

With `CC1CN(C(=O)c2ccccc2)CC2(CCN(CCc3ncccc3C(F)(F)F)CC2)O1.Cl` (stereo not shown) [Example 41, (2-methyl-9-(2-(3-(trifluoromethyl)pyridin-2-yl)ethyl)-1-oxa-4,9-diazaspiro[5.5]undecan-4-yl)(phenyl)methanone hydrochloride], the “μ and σ1 dual binding” value is listed as “++”. As to `C[C@@H]1CN(C(=O)c2c(F)cccc2F)CC2(CCN(CCc3ncccc3F)CC2)O1` [Example 145, (R)-(2,6-difluorophenyl)(9-(2-(3-fluoropyridin-2-yl)ethyl)-2-methyl-1-oxa-4,9-diazaspiro[5.5]undecan-4-yl)methanone], the “μ and σ1 dual binding” value is recorded as “++”.

Staying with this assay, now noted: combined class from Ki at human σ1 receptor (A1) and Ki at human μ-opioid receptor (A2); radioligand binding; read-out: μ and σ1 dual binding.
As for `CC1CN(C(=O)c2ccccc2)CC2(CCN(CC(=O)N3CCOCC3)CC2)O1` (stereo not shown) [Example 89, 2-(4-benzoyl-2-methyl-1-oxa-4,9-diazaspiro[5.5]undecan-9-yl)-1-morpholinoethanone hydrochloride], the Ki is greater than 500 nM. Still for that read-out and setting: next, `O=C(c1ccccc1)N1CCOC2(CCN(CCc3cccc([N+](=O)[O-])c3)CC2)C1` [Example 97, (9-(3-nitrophenethyl)-1-oxa-4,9-diazaspiro[5.5]undecan-4-yl)(phenyl)methanone]: greater than 500 nM; `CC1CN(C(=O)c2ccccc2)CC2(CCN(CCc3ccc(S(N)(=O)=O)cc3)CC2)O1` (stereo not shown) [Example 75, 4-(2-(4-benzoyl-2-methyl-1-oxa-4,9-diazaspiro[5.5]undecan-9-yl)ethyl)benzene-sulfonamide]: greater than 500 nM. On the same count and under the same terms, next, `CC(C)CCN1CCC2(CC1)CN(C(=O)c1ccccc1)CC(C)O2` (stereo not shown) [Example 86, (9-isopentyl-2-methyl-1-oxa-4,9-diazaspiro[5.5]undecan-4-yl)(phenyl)methanone hydrochloride]: greater than 500 nM. The same measure, in the same setting: next, `CC1CN(C(=O)c2cccc(F)c2F)CC2(CCN(CCc3ncccc3F)CC2)O1` (stereo not shown) [Example 147, (2,3-difluorophenyl)(9-(2-(3-fluoropyridin-2-yl)ethyl)-2-methyl-1-oxa-4,9-diazaspiro[5.5]undecan-4-yl)methanone]: greater than 500 nM. For the molecule `O=C(Nc1cccnc1)N1CCOC2(CCN(CCc3ccccc3)CC2)C1` [Example 121, 9-phenethyl-N-(pyridin-3-yl)-1-oxa-4,9-diazaspiro[5.5]undecane-4-carboxamide], the Ki was greater than 500 nM.

As for `CC1CN(C(=O)c2ccccc2F)CC2(CCN(CCc3ncccc3F)CC2)O1` (stereo not shown) [Example 59, (2-fluorophenyl)(9-(2-(3-fluoropyridin-2-yl)ethyl)-2-methyl-1-oxa-4,9-diazaspiro[5.5]undecan-4-yl)methanone dihydrochloride], the Ki is greater than 500 nM. As to `COC(=O)CCN1CCC2(CC1)CN(C(=O)c1c(F)cccc1F)CC1(CC1)O2` [Example 140, methyl 3-(12-(2,6-difluorobenzoyl)-4-oxa-8,12-diazadispiro[2.1.5.3]tridecan-8-yl)propanoate], the Ki was greater than 500 nM.
